Consider five molecules from article PMC9283466, “In silico identification of two peptides with antibacterial activity against multidrug-resistant Staphylococcus aureus” (NPJ Biofilms and Microbiomes, 2022).

In brackets after ≈: the same amount, converted by molar mass. Where two headings read alike, the source gives them in different places. Peptide text beside a SMILES is read from it. A value given as a limit tells only on which side of the number the result lay.

Assay [1] deals with S. aureus USA300 BAA-1717. As to the kind of experiment: microbe, parasite or virus in culture. It counts as cell-based, Staphylococcus aureus. The following applies: Staphylococcus aureus, BAA-1717 / MRSA / USA300. How it is done:
(§1) To determine the antimicrobial activity of the new antimicrobial peptides, HG2 and HG4, their minimum inhibitory concentrations (MICs) were determined by broth microdilution method[51] in cation adjusted Mueller Hinton broth (MHB) following the International Organisation for Standardisation (ISO) 20776-1 standard for MIC testing using a final bacterial inoculum of 5 × 10^5 CFU/ml[52]. […] The peptides dissolved in sterile distilled water were added to bacteria culture and incubated overnight at appropriate conditions. The MICs of the peptides and comparator antibiotics were recorded after 18–24 h. The minimum bactericidal concentrations (MBCs) were also determined and were taken as the lowest concentration of the antimicrobial that prevented the growth of bacterial cells after the subculture of cells (from MIC treatment) onto antibiotic-free media.

A further assay deals with S. aureus EMRSA-15. As to the kind of experiment: microbe, parasite or virus in culture. It counts as cell-based, Staphylococcus aureus. The following applies: Staphylococcus aureus. On the procedure:
as §1

The next assay concerns S. aureus ATCC 33591. The assay is described as follows: microbe, parasite or virus in culture. It counts as cell-based, Staphylococcus aureus. The following applies: Staphylococcus aureus. How it is done:
as §1

For another assay, the system named is List. monocytogenes. As to the kind of experiment: microbe, parasite or virus in culture. The assay is classed as cell-based, Listeria monocytogenes. On the procedure: as §1
The subject of another assay is Sal. typhimurium. The assay is described as follows: microbe, parasite or virus in culture. The assay is classed as cell-based, Salmonella enterica serovar Typhimurium. How it is done: as §1
Another assay relates to Ent. faecalis. As to the kind of experiment: microbe, parasite or virus in culture. It counts as cell-based, Enterococcus faecalis. How it is done:
as §1

A further assay concerns E. coli. As to the kind of experiment: microbe, parasite or virus in culture. It counts as cell-based, Escherichia coli. How it is done:
as §1

A further assay has as its system EMRA-15. The assay is described as follows: microbe, parasite or virus in culture. It counts as cell-based, Staphylococcus aureus. On the procedure: as §1
The test system of a further assay is S. aureus. The assay is described as follows: microbe, parasite or virus in culture. It counts as cell-based, Staphylococcus aureus. On the procedure: as §1
In the next assay the test system is P. aeruginosa. As to the kind of experiment: microbe, parasite or virus in culture. The assay is classed as cell-based, Pseudomonas aeruginosa. On the procedure:
as §1

Assay [2] relates to MRSA USA300 cells. The assay is described as follows: Time-kill kinetics. The assay is classed as cell-based, Staphylococcus aureus. The following applies: 3x MIC, comparator antibiotics, time not stated. How it is done:
The bactericidal activity of HG2, HG4 and comparator antimicrobial compounds was assessed using exponential-phase cultures[14] of MRSA USA300 grown in MHB (1 × 10^6-8 CFU/ml). […] Samples were taken at different time points, serially diluted and inoculated onto MH agar plates using the spread plate technique. After overnight incubation, the colony-forming units per millilitre of cell culture (CFU/ml) was calculated. Experiments were performed in quadruplicates.

In assay [3] the test system is MRSA USA300 cells. As to the kind of experiment: Serial passage / resistance assay. It counts as cell-based, Staphylococcus aureus. The settings on record: sub-MIC exposure over 20 days, MRSA USA300. How it is done: In vitro evaluation of the potential for MRSA USA3000 cells to develop resistance to HG2 and HG4 was performed as follows. […] Cultures from the highest concentration that supported growth were diluted 1: 1000 in MHB and used to provide the inoculum for the next passage day. This process was performed for a total duration of 20 days. Any putative mutants recovered were isolated via streak dilution for three generations on MHA, prior to further characterisation.

For assay [4], the system named is LPS-driven NF-kB activation, eLUCidate Raw 264.7 NF-kB reporter cell line. As to the kind of experiment: Anti-inflammatory activity, NF-kB luciferase reporter. The assay is classed as cell-based, murine. The following applies: Mus musculus, RAW264.7; 10 ng/ml LPS from E. coli, 6 h; read-out: IC50, LPS-mediated inflammation. On the procedure:
(§2) The inhibitory activity of HG2, HG4 and comparator compounds against LPS and LTA was assessed using eLUCidate™ Raw 264.7 NF-kB reporter cell line (AMSBIO) as previously described. The eLUCidate NF-kB reporter cell line is a stably transfected Raw 264.7 cell line which expresses the Renilla luciferase reporter gene under the transcriptional control of the NF-kB response element, a key transcription factor involved in immune and inflammatory responses. This reporter cell line has been used to measure the induction of various toll-like receptors (TLR) by ligands, including LPS and LTA, therefore providing an effective way to evaluate inhibitors of their activations. Briefly, cells were grown and maintained following the manufacturer’s instructions in Dulbecco’s modified essential medium (DMEM) supplemented with 10% fetal calf serum (FCS), 1% L-glutamine, 1% antibiotics (Invitrogen) and containing 3 µg/ml of puromycin (Sigma-Aldrich, UK). To test the inhibitory activity of HG2 and HG4 on LPS or LTA-driven NF-kB activation, eLUCidate™ Raw 264.7 cells grown on 75 cm^2 flasks were detached using trypsin-EDTA solution (Thermofisher, UK) and seeded into 96-well cell culture plates (Greiner Bio-one, UK) at ~25,000 cells per well (counted using Mallasez’s chamber). The next day, wells were emptied, and cells were exposed to optimal concentrations of LPS or LTA determined from preliminary experiments, (i.e. 10 ng/ml of LPS from E. coli or 10 µg/ml of LTA from S. aureus (Invivogen, UK)) in the presence of increasing concentrations of HG2 or HG4 (from 0 to 500 µg/ml, serial 1:2 dilutions). Pyrrolidine dithiocarbamate (PDTC, 100 µM) and polymyxin B (PMB, 100 µM) (Sigma-Aldrich, UK) were used as positive controls based on their well-known activity as anti-inflammatory molecules and blockers/neutralisers of LPS and LTA, respectively. Importantly, all steps were performed using non-pyrogenic plastics and RNase/DNase molecular biology tips to limit the risk of the presence of a trace of LPS/LTA. After 6 h incubation at 37 °C and 5% CO2, wells were emptied, and the cells were treated with 70 µl of ice-cold PBS containing 1% Triton X-100. After 10 min incubation on ice under orbital shaking at 200 rpm, 50 µL of cell lysates were collected and transferred into white 96-well luminescence plates (Dominique Dutscher) already containing 100 µL of Renilla luciferase substrate (Yelen, France). Luminescence signals of the wells were immediately measured using a microplate reader (Biotek Synergy Mx, UK). The luminescence values were expressed as a percentage of control inflammation corresponding to values obtained after treatment with LPS or LTA in the absence of an inhibitor. The IC50 values of PDTC, PMB, HG2 or HG4 on LPS or LTA-mediated inflammation (i.e. the concentration of molecule causing a reduction of 50% of the luciferase’s induction caused by LPS or LTA) were calculated using GraphPad® Prism 7 software.

In assay [5] the test system is LTA-driven NF-kB activation, eLUCidate Raw 264.7 NF-kB reporter cell line. The description is as above. The assay is classed as cell-based, murine. The following applies: Mus musculus, RAW264.7; 10 µg/ml LTA from S. aureus, 6 h; read-out: IC50, LTA-mediated inflammation. How it is done:
as §2

The subject of assay [6] is L. monocytogenes NCTC 11994. The assay is described as follows: microbe, parasite or virus in culture. The following applies: Listeria monocytogenes, NCTC11994. The assay is classed as cell-based, Listeria monocytogenes. How it is done: as §1
A further assay has as its system Sal. typhimurium SL1344. As to the kind of experiment: microbe, parasite or virus in culture. It counts as cell-based, Salmonella enterica serovar Typhimurium. The settings on record: Salmonella enterica, TYPHIMURIUM
How it is done:
as §1

A further assay concerns Ent. faecalis JH2-2. As to the kind of experiment: microbe, parasite or virus in culture. The following applies: Enterococcus faecalis, JH22. It counts as cell-based, Enterococcus faecalis. How it is done:
as §1

In the next assay the test system is E. coli K12. The assay is described as follows: microbe, parasite or virus in culture. The assay is classed as cell-based, Escherichia coli. The following applies: Escherichia coli, K12. How it is done:
as §1

In a further assay the test system is P. aeruginosa PA01. As to the kind of experiment: microbe, parasite or virus in culture. The following applies: Pseudomonas aeruginosa, PA01. It counts as cell-based, Pseudomonas aeruginosa. On the procedure: as §1
For a further assay, the system named is S. aureus RN4220. The assay is described as follows: MIC, broth microdilution. It counts as cell-based, Staphylococcus aureus. The settings on record: Staphylococcus aureus, sensitive, read-out: MIC. How it is done: as §1
On the technique in general: Dilution methods test growth across graded concentrations, often in twofold steps.

Where [7] appears, read: S. aureus USA300 BAA-1717, MRSA, read-out: MIC.

Take `C[C@H]1COc2c(N3CCN(C)CC3)c(F)cc3c(=O)c(C(=O)O)cn1c23` [Levof, levofloxacin]: the MIC in [1] (setting [7]) came to 0.0075 µg/mL (≈ 0.0208 µM); with S. aureus EMRSA-15 (S. aureus EMRSA-15, resistances MRSA, Cip, read-out: MIC) it was 1 µg/mL (≈ 2.77 µM); in the assay on S. aureus ATCC 33591 (S. aureus ATCC 33591, MRSA, read-out: MIC), 0.015 µg/mL (≈ 0.0415 µM).

As to `CC[C@H](C)[C@H](NC(=O)[C@H](CC(C)C)NC(=O)[C@H](CC(C)C)NC(=O)[C@H](CC(C)C)NC(=O)[C@H](CCCCN)NC(=O)[C@H](CCCCN)NC(=O)[C@@H](N)CCSC)C(=O)N[C@@H](CC(C)C)C(=O)N[C@@H](Cc1ccccc1)C(=O)N[C@@H](CS)C(=O)N[C@@H](CC(C)C)C(=O)N[C@@H](C)C(=O)N[C@@H](CC(C)C)C(=O)N[C@@H](C)C(=O)N[C@@H](CC(C)C)C(=O)N[C@@H](C)C(=O)NCC(=O)N[C@@H](CS)C(=O)N[C@@H](CCCCN)C(=O)N[C@@H](CCCCN)C(=O)N[C@@H](C)C(=O)N1CCC[C@H]1C(N)=O` [Linear HG2] (H-MKKLLLILFCLALALAGCKKAP-NH2; N-terminus and C-terminus assumed), the “Minimum inhibitory Concentrations MICs” value with List. monocytogenes, with Sal. typhimurium, with Ent. faecalis, in the assay with E. coli, in the assay with EMRA-15 and with S. aureus was more than 1024 µg/mL in each case. Moreover, in the assay with P. aeruginosa, the “Minimum inhibitory Concentrations MICs” value is more than 1024 µg/mL.

For `C/C(=C\C(=O)OCCCCCCCCC(=O)O)C[C@@H]1OC[C@H](C[C@@H]2O[C@H]2[C@@H](C)[C@H](C)O)[C@@H](O)[C@H]1O` [Mupirocin, reference compound], the “reduction in viable cells (time-kill)” value in the assay on MRSA USA300 cells [2] is on record as not below 2 log10 CFU/ml. For the same molecule, in the assay on MRSA USA300 cells [3], the “fold increase in MIC during serial passage” value came out at 32 fold. Also, in assay [1] (setting [7]), the MIC came to 0.12 µg/mL (≈ 0.24 µM).

Take `S=C(S)N1CCCC1` [PDTC, Pyrrolidine dithiocarbamate, reference compound]: the IC50 in assay [4] is 10.7 ± 1.2 µg/mL; in [5], 10.8 ± 1.29 µg/mL.

Turning to `CN[C@H](CC(C)C)C(=O)N[C@H]1C(=O)N[C@@H](CC(N)=O)C(=O)N[C@H]2C(=O)N[C@H]3C(=O)N[C@H](C(=O)N[C@H](C(=O)O)c4cc(O)cc(O)c4-c4cc3ccc4O)[C@H](O)c3ccc(c(Cl)c3)Oc3cc2cc(c3O[C@@H]2O[C@H](CO)[C@@H](O)[C@H](O)[C@H]2O[C@H]2C[C@](C)(N)[C@H](O)[C@H](C)O2)Oc2ccc(cc2Cl)[C@H]1O` [Vancomycin], the “reduction in viable cells (time-kill)” value in the assay with MRSA USA300 cells [2] is listed as not below 2 log10 CFU/ml. For the same molecule, the MIC was 64 µg/mL (≈ 44.2 µM) in assay [6]; 256 µg/mL (≈ 177 µM) in the assay with Sal. typhimurium SL1344; 64 µg/mL (≈ 44.2 µM) in the assay with Ent. faecalis JH2-2; 128 µg/mL (≈ 88.3 µM) in the assay with E. coli K12; 2 µg/mL (≈ 1.38 µM) in [1]; 2 µg/mL (≈ 1.38 µM) against S. aureus EMRSA-15 (MRSA). Moreover, the values for the MIC against S. aureus ATCC 33591 (ATCC 33591 / MRSA), in the assay with P. aeruginosa PA01 and in the assay with S. aureus RN4220 were 2 µg/mL (≈ 1.38 µM), 64 µg/mL (≈ 44.2 µM) and 1 µg/mL (≈ 0.69 µM), respectively.

The IC50 is the midpoint of a concentration-inhibition curve.
